Measurements reported in patent publication US5707966A, “Antithrombotic agents” (Eli Lilly and Company, priority 1995, dated 1998).
Where a name gives a salt, the structure may show the parent alone. Read-outs that look alike come from different tables or passages of the source.

Key:
Type in all cases: biochemical
Human plasma [1] = assay: Human plasma anticoagulation, thrombin time (TT); details: concentration required to double the thrombin time, linear extrapolation
Protocol: (§1) Dog plasma and rat plasma is obtained from conscious mixed-breed hounds (either sex, Hazelton-LRE, Kalamazoo, Mich., U.S.A.) or from anesthetized male Sprague-Dawley rats (Harlan Sprague-Dawley, Inc., Indianapolis, Ind., U.S.A.) by venipuncture into 3.8 percent citrate. Fibrinogen is prepared from in-date ACD human blood as the fraction I-2 according to previous procedures and specifications. […] Human fibrinogen is also purchased as 98 percent pure/plasmin free from American Diagnostica, Greenwich, Conn. Coagulation reagents ACTIN, Thromboplastin, and Human plasma are from Baxter Healthcare Corp., Dade Division, Miami, Fla. Bovine thrombin from Parke-Davis ([…], Mich.) is used for coagulation assays in plasma.
(§2) Coagulation assay procedures are as previously described. […] A CoAScreener coagulation instrument (American LABor, Inc.) is used for all coagulation assay measurements. The prothrombin time (PT) is measured by adding 0.05 mL saline and 0.05 mL Thromboplastin-C reagent to 0.05 mL test plasma. The activated partial thromboplastin time (APTT) is measured by incubation of 0.05 mL test plasma with 0.05 mL Actin reagent for 120 seconds followed by 0.05 mL CaCl2 (0.02M). The thrombin time (TT) is measured by adding 0.05 mL saline and 0.05 mL thrombin (10 NIH units/mL) to 0.05 mL test plasma. The compounds of Formula I are added to human or animal plasma over a wide range of concentrations to determine prolongation effects on the APTT, PT, and TT assays. Linear extrapolations are performed to estimate the concentrations required to double the clotting time for each assay.

Human Thrombin = Human Thrombin (Homo sapiens, UniProt P00734); assay: Inhibition of amidase activity of thrombin (Kass)
Bovine trypsin = target: T1, Bovine trypsin (Bos taurus, UniProt P00760); assay: Kass with trypsin, chromogenic substrate; details: substrate N-Benzoyl-Phe-Val-Arg-p-nitroanilide
T1 construct: Bovine trypsin is purchased; purchased Worthington Biochemicals, Freehold, N.J
T1 sequence (P00760 24-246): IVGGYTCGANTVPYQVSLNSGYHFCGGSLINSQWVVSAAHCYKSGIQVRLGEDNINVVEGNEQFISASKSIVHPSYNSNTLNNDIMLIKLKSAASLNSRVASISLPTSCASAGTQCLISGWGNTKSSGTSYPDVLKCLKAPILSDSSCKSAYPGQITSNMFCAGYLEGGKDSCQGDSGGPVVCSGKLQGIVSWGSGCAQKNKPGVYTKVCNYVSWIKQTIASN
Protocol: By substantially following the procedures described above for human thrombin, and using other human blood coagulation system serine proteases and proteases of the fibrinolytic system with the appropriate chromogenic substrates, identified below, selectivity of the compounds of the present invention with respect to the coagulation factor serine proteases and with respect to the fibrinolytic system serine proteases are evaluated as well as their substantial lack of interference with serine proteases of the fibrinolytic system. Thrombin inhibitors preferably should spare fibrinolysis induced by urokinase, tissue plasminogen activator (t-PA) and streptokinase. This would be important to the therapeutic use of such agents as an adjunct to streptokinase, t-PA or urokinase thrombolytic therapy and to the use of such agents as an endogenous fibrinolysis-sparing (with respect to t-PA and urokinase) antithrombotic agent. In addition to the lack of interference with the amidase activity of the fibrinolytic proteases, such fibrinolytic system sparing can be studied by the use of human plasma clots and their lysis by the respective fibrinolytic plasminogen activators.
Human factors X, Xa, IXa, XIa, and XIIa are purchased from Enzyme Research Laboratories, South Bend, Ind.; human urokinase from Leo Pharmaceuticals, Denmark; and recombinant activated Protein C (aPC) is prepared at Eli Lilly and Co. substantially according to U.S. Patent No. 4,981,952. Chromogenic substrates: N-Benzoyl-Ile-Glu-Gly-Arg-p-nitroanilide (for factor Xa); N-Cbz-D-Arg-Gly-Arg-p-nitroanilide (for factor IXa assay as the factor Xa substrate); Pyroglutamyl-Pro-Arg-p-nitroanilide (for Factor XIa and for aPC); H-D-Pro-Phe-Arg-p-nitroanilide (for factor XIIa); and Pyroglutamyl-Gly-Arg-p-nitroanilide (for urokinase); are purchased from KabiVitrum, Stockholm, Sweden, or from Midwest Biotech, Fishers, Ind. Bovine trypsin is purchased from Worthington Biochemicals, Freehold, N.J., and human plasma kallikrein from Kabi Vitrum, Stockholm, Sweden. Chromogenic substrate H-D-Pro-Phe-Arg-p-nitroanilide for plasma kallikrein is purchased from Kabi Vitrum, Stockholm, Sweden. N-Benzoyl-Phe-Val-Arg-p-nitroanilide, the substrate for human thrombin and for trypsin, is synthesized according to procedures described above for the compounds of the present invention, using known methods of peptide coupling from commercially available reactants or purchased from Midwest Biotech, Fishers, Ind.

Human plasma [2] = assay: Human plasma anticoagulation, activated partial thromboplastin time (APTT); details: concentration required to double the APTT, linear extrapolation
Protocol: as §1, §2

Human plasma [3] = assay: Human plasma anticoagulation, prothrombin time (PT); details: concentration required to double the PT, linear extrapolation
Protocol: as §1, §2

[4] = mean over a range of concentrations, […]

SMILES | Human Plasma Anticoagulation 2× Clotting time TT (Human plasma [1]) | Kass Human Thrombin (Human Thrombin; [4]) | Kass Trypsin (Bovine trypsin) | Human Plasma Anticoagulation 2× Clotting time APTT (Human plasma [2]) | Human Plasma Anticoagulation 2× Clotting time PT (Human plasma [3]) | Kass Human Thrombin (Human Thrombin)
Nc1ccc(CNC(=O)[C@@H]2CCCN2C(=O)[C@@H](CC2CCCCC2)NCC(=O)O)cc1 [Example 62, HO2 CCH2 -D-Cha-Pro-4-NHCH2 C6 H4 NH2.HCl] | 54 ng/mL | 7.6 × 10^6 (L/mole) | – | – | – | –
Nc1ccc(CCNC(=O)[C@@H]2CCCN2C(=O)[C@@H](CC2CCCCC2)NCC(=O)O)cc1 [Example 63, HO2 CCH2 -D-Cha-Pro-4-NHCH2 CH2 C6 H4 NH2.HCl] | 680 ng/mL | 0.31 × 10^6 (L/mole) | – | – | – | –
Cl.N=C(N)c1cc(CNC(=O)[C@@H]2CCCN2C(=O)[C@@H](CC2CCCCC2)NCC(=O)O)cs1 [Example 65, HO2 CCH2 -D-Cha-pro-4-NHCH2-2-amidinothiophene.HCl] | 1 ng/mL | 4,500 × 10^6 (L/mole) | 570 × 10^6 (L/mole) | 48 ng/mL | – | –
N=C(N)C1CCC(CNC(=O)[C@@H]2CCCN2C(=O)[C@@H](CC2CCCCC2)NCC(=O)O)NC1 (stereo partly drawn) [Example 67, HO2 CCH2 -D-Cha-pro-2-NHCH2-5-amidinopiperidine.HCl] | 34 ng/mL | – | – | 1,800 ng/mL | 1,300 ng/mL | 11
N=C(N)C1=CNC(CNC(=O)[C@@H]2CCCN2C(=O)[C@@H](CC2CCCCC2)NCC(=O)O)CC1 (stereo partly drawn) [Example 68, HO2 CCH2 -D-Cha-Pro-2-NHCH2 -5-amidino-5,6-dehydro-piperidine.HCl] | 4 ng/mL | 600 × 10^6 (L/mole) | – | 49 ng/mL | 190 ng/mL | –
Nc1cc(CNC(=O)[C@@H]2CCCN2C(=O)[C@@H](CC2CCCCC2)NCC(=O)O)ccn1 [Example 73, HO2 CCH2 -D-Cha-Pro-4-NHCH2 -2-aminopyridine.HCl] | 21 ng/mL | 28 × 10^6 (L/mole) | – | 340 ng/mL | 330 ng/mL | –
Nc1ccc(CNC(=O)[C@@H]2CCCN2C(=O)[C@@H](CC2CCCCC2)NCC(=O)O)cn1 [Example 74, HO2 CCH2 -D-Cha-Pro-5-NHCH2 -2-aminopyridine.HCl] | 20 ng/mL | 29 × 10^6 (L/mole) | – | 420 ng/mL | 350 ng/mL | –
Nc1ccc(CCNC(=O)[C@@H]2CCCN2C(=O)[C@@H](CC2CCCCC2)NCC(=O)O)cn1 [Example 75, HO2 CCH2 -D-Cha-Pro-5-NHCH2 CH2 -2-aminopyridine.HCl] | – | 0.45 × 10^6 (L/mole) | – | – | – | –
Nc1ccc(CNC(=O)[C@@H]2CCCN2C(=O)[C@@H](CC2CCCCC2)NCC(=O)O)cc1F [Example 77, HO2 CCH2 -D-Cha-Pro-4-NHCH2 -2-F-aniline.HCl] | 53 ng/mL | – | – | 1,600 ng/mL | 890 ng/mL | 11
CCS(=O)(=O)N[C@H](CC1CCCCC1)C(=O)N1CCC[C@H]1C(=O)NCc1ccc(N)cc1F [Example 82, EtSO2 -D-Cha-Pro-4-NHCH2 -3-F-C6 H3 NH2.HCl] | 130 ng/mL | 5.0 × 10^6 (L/mole) | – | 3,800 ng/mL | 3,000 ng/mL | –
